Several values for one entry are separate records, joined by “and”; a condition that tells them apart may be missing. Identical values can stand only once. Like-named read-outs stand apart in the source and are kept apart here.

Consider four compounds from article PMC10525132, “Potent Antioxidant and Anti-Tyrosinase Activity of Butein and Homobutein Probed by Molecular Kinetic and Mechanistic Studies” (Antioxidants, 2023).

For series [1] the following is noted: cited from earlier work.
On the set-up of series [2]: method as in doi:10.1021/ja00310a049. To be noted: reference value used for calibration, cited from earlier work.
The nature of series [3]: Inhibited autoxidation of methyl linoleate in Triton X-100 micelles (O2 uptake kinetics). The protocol: Autoxidation studies were performed as previously described, with slight modifications. In a typical experiment, 2.5 mL of air-saturated buffered (PBS, 50 mM, pH 7.4) aqueous dispersion of MeLin (final concentration 2.74 mM) in Triton™ X-100 (final concentration 16 mM) micelles were prepared by vortex mixing. A fresh stock solution of AAPH was added (final concentration 2.5 mM), immediately followed by addition (5–30 μL) of a stock solution of the antioxidant in acetonitrile (final concentration of 1–20 μM) and by additional vortex mixing (5 s). The mixture was sealed in a 2 mL glass vial provided with a PTFE-coated stirring bar and capped with the O2 sensor. The sample was equilibrated at 37 °C in a thermostatted bath equipped with a sealed magnetic stirrer, and oxygen concentration was monitored with time as previously described. Oxygen consumption in the absence of antioxidants was compared with that recorded in the presence of butein, homobutein, or α-tocopherol (α-TOH) as the reference antioxidant. […]. The stoichiometric factor n was determined from the length of the inhibited period τ by Equation (3). The rate of initiation Ri was determined in preliminary experiments using α-TOH as the inhibitor (n = 2) by Equation (3). (1) −d[O2]/dt=kp[RH]Ri/nkinh[AH]+Ri (2) R0/Rinh−Rinh/R0=nkinh[AH]/2ktRi (3) n=Riτ/[AH]
To study the antioxidant activity of butein and homobutein on quantitative grounds, we performed inhibited autoxidation studies using biomimetic neutral micelles of methyl linoleate (MeLin) in aqueous Triton™ X-100 (with 50 mM PBS, pH 7.4, 37 °C), since it is a well-validated model we and others used in previous studies. The reaction kinetics was followed by monitoring oxygen consumption via miniaturized NIR-fluorescence-quenching O2 probes, according to a previously validated protocol, both in the absence and in the presence of different concentrations of butein or homobutein. The reaction was initiated thermally in the aqueous phase by the controlled decomposition of the azo compound AAPH so as to clearly distinguish the chain-breaking mechanism from other efficacies based on interference with the initiation process (e.g., the Fenton reaction by metal chelation) and α-TOH was used as the reference antioxidant.

For `OCCc1ccc(O)c(O)c1` [hydroxytyrosol], the BDEOH in series [1] is 80.8 kcal/mol.

Consider `CC(C)(C)c1cc(C(C)(C)C)c(O)c(C(C)(C)C)c1` [TBP, 2,4,6-tri-tert-butylphenol], for which the BDEOH in series [1] (reference phenol) is 80.1 kcal/mol.

For the compound `CC(C)(C)c1cc(O)c(O)c(C(C)(C)C)c1` [3,5-di-tert-butylcatechol], the BDEOH in series [1] was 78.2 kcal/mol.

Regarding `Cc1c(C)c2c(c(C)c1O)CC[C@@](C)(CCC[C@H](C)CCC[C@H](C)CCCC(C)C)O2` [α-TOH, (R,R,R)-α-tocopherol], the “n (stoichiometric factor of peroxyl radical trapping)” value is 2 and 2 ^2 in series [2]; 2.0 in series [2] (listed as tocopherol). Besides, the BDEOH in series [1] was 77.1 ^3 kcal/mol. Also, the “kinh (inhibition rate constant)” value in series [3] (AAPH (2.5 mM) initiated autoxidation of MeLin/Triton X-100 micelles, 37 °C, pH 7.4) is 22.4 ± 5.8 10^3 M^−1s^−1; in series [3] (MeLin in Triton X-100 micelles, pH 7.4, 37 °C), “(2.2 ± 0.6) × 10^4 M^−1s^−1”.
